Experiments:
[1] = target: mitochondrial reactive oxygen species (mitoROS); experiment: ROS-Glo Assay of superoxide dismutase activity on menadione-induced mitoROS; format: cell-based; settings: for half maximal effective concentration (EC50) for mitoROS suppression: FIG. 6, compared with mitoTEMPO
Description: To test compounds for mitochondrial antioxidant behavior, the ROS-Glo Assay to assess superoxide dismutase activity of induced mitochondrial reactive oxygen species (mitoROS). In this assay, menadione is used to induce mitoROS production, and then a […] is used to measure the resultant hydrogen peroxide levels. A higher level of hydrogen peroxide means more dismutase activity.

diabetic mice = experiment: Diastolic dysfunction (E/e′ ratio by echocardiography) in high fat diet diabetic mice; format: in vivo; settings: diabetic mice (high fat diet 16 weeks), 1 mg/kg/day for 2 weeks
Method: (§1) To test compound activity against mitochondrial oxidative stress and diastolic dysfunction Mice were fed a high fat diet for 16 weeks starting at 6 weeks of age. Before treatment, fasting blood glucose (Gluc) and body weight were measured. Gluc was used to screen for diabetes mellitus (DM). Echocardiography was used to identify DD by measuring the E/e′ ratio. Treatment of compounds 58 and 94 was 1 mg/kg/day for 2 weeks. Then, E/e′ was reassessed.

[2] = test system: mitoROS in diabetic (DM) mice; experiment: mitoROS in diabetic (DM) mice measured by mitoSOX Red fluorescence; format: in vivo; settings: FIG. 9
Method: as §1

[3] = Body weight and serum glucose of treated diabetic mice; format: in vivo; settings: 1 mg/kg/day for 2 weeks, versus before treatment
Method: as §1

mice with HFpEF = mice with HFpEF (Jeong et al. J Am Heart Assoc. 2016); cited from earlier work

Row | Structure (SMILES) | half maximal effective concentration (EC50) for mitoROS suppression [1] | diastolic dysfunction as measured by E/e′ ratio (diabetic mice) | body weight [3] | other results
1 | COc1ccc([P@TB15+](CC(=O)NC2CC(C)(C)N([O])C(C)(C)C2)(c2ccc(OC)cc2)c2ccc(OC)cc2)cc1 [compound 2, 2,2,6,6-Tetramethyl-4-[[2-(tri-4-methoxyphenyl-phosphonio)acetyl]amino]-1-piperidinyloxy Chloride] | lower EC50s for mitoROS suppression than did mitoTEMPO | – | – | –
2 | COc1ccc([P+](CCC(=O)NC2CC(C)(C)N(O)C(C)(C)C2)(c2ccc(OC)cc2)c2ccc(OC)cc2)cc1.[Br-] [compound 58, 2,2,6,6-Tetramethyl-4-[[3-(tri-4-methoxyphenylphosphonio)-propionyl]amino]-1-piperidinyloxy Bromide] | – | Diastolic dysfunction is treated | Neither serum glucose nor body weight were affected | half maximal inhibitory concentration (IC50) ([1]; ROS-Glo assay, FIG. 5, compared with mitoTEMPO): better than that of mitoTEMPO; mitoROS as measured by mitoSOX Red fluorescence [2]: able to reduces mitoROS
3 | CC1(C)CC(NC(=O)CCCCC[P+](c2ccc(F)cc2)(c2ccc(F)cc2)c2ccc(F)cc2)CC(C)(C)N1[O].[Br-] [compound 86, 2,2,6,6-Tetramethyl-4-[[6-(tri-4-fluorophenylphosphonio)-hexanoyl]amino]-1-piperidinyloxy Bromide] | lower EC50s for mitoROS suppression than did mitoTEMPO | – | – | –
4 | COc1cc(OC)c([P+](CC(=O)NC2CC(C)(C)N([O])C(C)(C)C2)(c2c(OC)cc(OC)cc2OC)c2c(OC)cc(OC)cc2OC)c(OC)c1.[Cl-] [compound 88, 2,2,6,6-Tetramethyl-4-[[2-(tri-2,4,6-trimethoxyphenyl(2-phosphonia))acetyl]amino]-1-piperidinyloxy Chloride] | lower EC50s for mitoROS suppression than did mitoTEMPO | – | – | –
5 | CC1(C)CC(NC(=O)C[P+](c2ccc(F)cc2)(c2ccc(F)cc2)c2ccc(F)cc2)CC(C)(C)N1[O].[Cl-] [compound 94, 2,2,6,6-Tetramethyl-4-[[2-(tri-4-fluorophenylphosphonio)-acetyl]amino]-1-piperidinyloxy Chloride] | – | Diastolic dysfunction is treated | did not affect | –
6 | CC1(C)CC(NC(=O)C[P+](c2ccccc2)(c2ccccc2)c2ccccc2)CC(C)(C)N1[O] [mitoTEMPO] | – | – | – | diastolic function (mice with HFpEF): improve diastolic function

— patent US12473313B2, “Therapeutic compounds and methods of use thereof” (Regents of the University of Minnesota, priority 2020, dated 2025)
